From ChEMBL document CHEMBL5523724, “Rational Molecular Editing: A New Paradigm in Drug Discovery” (J Med Chem, 2024) come the findings set out here.

The structures appear in SMILES notation.

The target in assay [1] is T1, 3-hydroxy-3-methylglutaryl-coenzyme A reductase (Homo sapiens, UniProt P04035).
T1 sequence (P04035 whole entry): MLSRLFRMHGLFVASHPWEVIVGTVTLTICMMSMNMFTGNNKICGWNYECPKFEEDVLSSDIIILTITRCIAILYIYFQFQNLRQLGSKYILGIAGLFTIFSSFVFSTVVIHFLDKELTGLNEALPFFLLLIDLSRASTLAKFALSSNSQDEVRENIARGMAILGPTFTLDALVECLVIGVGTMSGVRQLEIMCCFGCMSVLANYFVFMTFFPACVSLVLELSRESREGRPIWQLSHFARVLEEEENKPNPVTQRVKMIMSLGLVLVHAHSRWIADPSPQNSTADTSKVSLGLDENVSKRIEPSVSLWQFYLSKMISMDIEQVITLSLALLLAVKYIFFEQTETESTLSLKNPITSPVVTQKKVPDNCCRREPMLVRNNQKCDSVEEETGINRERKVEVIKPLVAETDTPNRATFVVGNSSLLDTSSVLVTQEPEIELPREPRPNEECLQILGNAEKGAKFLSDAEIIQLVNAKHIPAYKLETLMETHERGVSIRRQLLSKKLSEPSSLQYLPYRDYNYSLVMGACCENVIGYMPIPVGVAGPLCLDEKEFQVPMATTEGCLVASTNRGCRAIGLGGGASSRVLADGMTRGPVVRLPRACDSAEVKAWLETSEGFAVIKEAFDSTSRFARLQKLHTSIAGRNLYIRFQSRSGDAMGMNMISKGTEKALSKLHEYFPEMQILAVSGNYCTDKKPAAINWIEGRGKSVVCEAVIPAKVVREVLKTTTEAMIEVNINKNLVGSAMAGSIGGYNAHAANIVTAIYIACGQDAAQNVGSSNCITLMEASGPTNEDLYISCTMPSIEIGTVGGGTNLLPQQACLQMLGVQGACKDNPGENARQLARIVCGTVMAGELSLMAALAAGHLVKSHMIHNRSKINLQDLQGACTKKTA
Kind of assay: Inhibition of HMG-CoA Reductase (unknown origin).

A further assay relates to Ramos. Kind of assay: Antitumor activity against human Ramos cells. The class given is functional, cell-based.

The IC50 is the concentration at which inhibition is half-maximal. High values mean a need for much substance, low ones inhibition by little substance. Turning to `CC(C)c1ccc(-c2ccc(F)cc2)n1CC[C@@H]1C[C@@H](O)CC(=O)O1`, the IC50 in assay [1] came to 230 nM.

Take `Cc1cccc(P(=O)(CNCc2ccccc2)c2cccc(C)c2)c1`: the midpoint of inhibition with Ramos, the IC50, lay at 38000 nM. Consider `[2H]C([2H])(NCc1ccccc1)P(=O)(c1cccc(C)c1)c1cccc(C)c1`, for which the IC50 in the assay with Ramos amounted to 4200 nM. With `CC(C)c1c(C(=O)Nc2ccccc2)c(-c2ccccc2)c(-c2ccc(F)cc2)n1CC[C@@H]1C[C@@H](O)CC(=O)O1` [ATORVASTATIN LACTONE], the midpoint of inhibition in assay [1], the IC50, lay at 7 nM.
